Measurements reported in US11273144B2, “Compounds and compositions for the treatment of muscular disorders and bone disorders” (Epirium Bio Inc., priority 2012, dated 2022).
Several values for one entry are separate records, joined by “and”; a condition that tells them apart may be missing. Identical values can stand only once. Values belong to the compound of their own block, whether it stands above or below them.

What was measured:
[1] = Effect on body growth of rats on dexamethasone with or without epicatechin; format: in vivo, SD rats; conditions: for Femur Length / Tibia Length: 37th day; for WEIGHT Avg / LENGTH Avg: group average; for WEIGHT Ind: individual rat
Procedure: SD rats of the body weight 50-60 g and age 3-4 weeks were divided into 4 groups. […] All dosing were by subcutaneous (SC) mode of administration. Dosing of animals was continued for 36 days. Body weight was measured every alternate day, overall length was measured weekly. Animals were photographed periodically to further support data. Feed intake, general health and movement were assessed routinely. On 37th day animals were sacrificed and femur and tibia length were measured using Vernier Calipers. Blood was collected and stored.

[2] = system: mouse myoblast cell line, C2C12; assay: Mouse myoblast assay (C2C12, Western blot); format: cell-based; conditions: C2C12, enantiomers 10 nM to 1000 nM, within 24 hr
Procedure: Cells or skeletal muscle tissue samples were homogenized in 50 ul lysis buffer (1% triton X-100, 20 mmol/L Tris, 140 mmol/L NaCl, 2 mmol/L EDTA, and 0.1% SDS) with protease and phosphatase inhibitor cocktails supplemented with 1 mmol/L PMSF, 2 mmol/L Na3VO4 and 1 mmol/L NaP. Homogenates were passed through an insulin syringe five times, sonicated for 30 min at 4DC and centrifuged (12,000×g) for 10 min. The total protein content was measured in the supernatant. A total of 40)Ig of protein was loaded onto a 5% or 10% SDS-PAGE, electrotransferred, incubated for 1 h in blocking solution (5% nonfat dry milk in TBS plus 0.1% Tween 20 [TBS-T]), followed by either a 3-h incubation at room temperature or overnight incubation at 4DC with primary antibodies. Primary antibodies were typically diluted 1:1000 or 1:2000 in TBS-T plus 5% bovine serum albumin. Membranes were washed (3× for 5 min) in TBS-T and incubated 1 h at room temperature in the presence of HRP-conjugated secondary antibodies diluted 1:10,000 in blocking solution. Membranes were again washed 3 times in TBS-T, and the immunoblots were developed using an enhanced chemiluminescence detection kit. The band intensities were digitally quantified. All primary antibodies are commercially available. Epicatechin induces follistatin expression, suppresses myostatin expression and accelerates the differentiation of cultured mouse myoblasts into myotubes. […] The mouse myoblast cell line, C2C12, was grown to semi-confluence in 6-well tissue culture plates and then exposed to epicatechin (100 nM) for three days using literature-standardized differentiation inducing media: DMEM supplemented with 2% horse serum. Proteins were extracted, separated by conventional gel electrophoresis and stained as Western blots by reacting with commercially available antibodies specific for markers of muscle cell growth and differentiation. In experiments examining the comparative effects of (−) and (+) epicatechin enantiomers on muscle cells, the cells were grown to semi-confluence in 6 well plates, placed into literature-standardized differentiation medium containing horse serum, and then stimulated for 24 hours with (−) or (+) epicatechin enantiomers, at concentrations ranging from 10 nM to 1000 nM. The cells were then harvested as above, and Western blots were prepared to determine relative expression of PGCla and follistatin, using commercially available, specific, primary antibodies.

[3] = epicatechin 3 MPK s/c followed by dexamethasone
[4] = epicatechin 10 MPK s/c followed by dexamethasone

SMILES: Oc1cc(O)c2c(c1)O[C@H](c1ccc(O)c(O)c1)[C@H](O)C2 [epicatechin]
Femur Length [1, 3]: 29.57 mm | Tibia Length [1, 3]: 34.91 mm | Femur Length [1, 4]: 31.30 mm | Tibia Length [1, 4]: 35.37 mm

Femur Length ([1]; dexamethasone s/c alone): 22.68 mm | Tibia Length ([1]; dexamethasone s/c alone): 28.67 mm | WEIGHT Avg ([1]; Day 1, dexamethasone alone SC): 59.3 g | WEIGHT Ind ([1]; Day 1, dexamethasone alone SC): 55.4 g and 57.7 g and 64.8 g | WEIGHT Avg ([1]; Day 11, dexamethasone alone SC): 89.1 g | WEIGHT Ind ([1]; Day 11, dexamethasone alone SC): 91.1 g and 84.3 g and 91.9 g | LENGTH Avg ([1]; Day 13, dexamethasone alone SC): 15.3 cm | LENGTH Avg ([1]; Day 23, dexamethasone alone SC): 14.2 cm | WEIGHT Avg ([1]; Day 23, dexamethasone alone SC): 85.7 g | WEIGHT Ind ([1]; Day 23, dexamethasone alone SC): 88.0 g and 80.0 g and 89.0 g | LENGTH Avg ([1]; Day 35, dexamethasone alone SC): 14.2 cm | WEIGHT Avg ([1]; Day 35, dexamethasone alone SC): 96.1 g | WEIGHT Ind ([1]; Day 35, dexamethasone alone SC): 103.9 g and 93.1 g and 91.5 g
SMILES: C[C@@H]1C[C@H]2[C@@H]3CCC4=CC(=O)C=C[C@]4(C)[C@@]3(F)[C@@H](O)C[C@]2(C)[C@@]1(O)C(=O)CO [DEX, Dexamethasone]

SMILES: Oc1cc(O)c2c(c1)O[C@H](c1ccc(O)c(O)c1)[C@H](O)C2 [(−) epicatechin, (−)−epicatechin]
expression of PGC1u [2]: stimulated | expression of follistatin [2]: stimulated

SMILES: Oc1cc(O)c2c(c1)O[C@@H](c1ccc(O)c(O)c1)[C@@H](O)C2 [(+) epicatechin, (+)−epicatechin]
expression of PGC1u [2]: stimulated | expression of follistatin [2]: stimulated
